PubChem BioAssay (NCI)
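Values below derive from 48-hour exposures of cells grown in 96-well plates, with endpoints linearly interpolated between the two concentrations bracketing the appropriate inhibition level. TGI: total growth inhibition.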

Legend:
Experiment in all cases: growth of human tumour cells (NCI), 48 h
786-0 renal = system: 786-0 renal
A549 NSCLC = system: A549 NSCLC
ACHN renal = system: ACHN renal
BT-549 breast = system: BT-549 breast
CAKI-1 renal = system: CAKI-1 renal
CCRF-CEM leukemia = system: CCRF-CEM leukemia
COLO 205 colon = system: COLO 205 colon
DU-145 prostate = system: DU-145 prostate
EKVX NSCLC = system: EKVX NSCLC
HCC-2998 colon = system: HCC-2998 colon
HCT-116 colon = system: HCT-116 colon
HCT-15 colon = system: HCT-15 colon
HL-60(TB) leukemia = system: HL-60(TB) leukemia
HOP-92 NSCLC = system: HOP-92 NSCLC
HS 578T breast = system: HS 578T breast
HT29 colon = system: HT29 colon
IGROV1 ovarian = system: IGROV1 ovarian
K-562 leukemia = system: K-562 leukemia
KM12 colon = system: KM12 colon
LOX IMVI melanoma = system: LOX IMVI melanoma
M14 melanoma = system: M14 melanoma
MCF7 breast = system: MCF7 breast
MDA-MB-231 breast = system: MDA-MB-231 breast
MDA-MB-435 = system: MDA-MB-435
MDA-N = system: MDA-N
MOLT-4 leukemia = system: MOLT-4 leukemia
NCI-H226 lung = system: NCI-H226 lung
NCI-H23 lung = system: NCI-H23 lung
NCI-H460 lung = system: NCI-H460 lung
NCI-H522 lung = system: NCI-H522 lung
NCI/ADR-RES ovarian = system: NCI/ADR-RES ovarian
OVCAR-3 ovarian = system: OVCAR-3 ovarian
OVCAR-4 ovarian = system: OVCAR-4 ovarian
OVCAR-5 ovarian = system: OVCAR-5 ovarian
OVCAR-8 ovarian = system: OVCAR-8 ovarian
PC-3 prostate = system: PC-3 prostate
RPMI-8226 leukemia = system: RPMI-8226 leukemia
SF-268 CNS = system: SF-268 CNS
SF-295 CNS = system: SF-295 CNS
SF-539 CNS = system: SF-539 CNS
SK-MEL-2 melanoma = system: SK-MEL-2 melanoma
SK-MEL-28 melanoma = system: SK-MEL-28 melanoma
SK-MEL-5 melanoma = system: SK-MEL-5 melanoma
SK-OV-3 ovarian = system: SK-OV-3 ovarian
SN12C renal = system: SN12C renal
SNB-19 CNS = system: SNB-19 CNS
SNB-75 CNS = system: SNB-75 CNS
SW-620 colon = system: SW-620 colon
T-47D breast = system: T-47D breast
TK-10 renal = system: TK-10 renal
U251 CNS = system: U251 CNS
UACC-257 melanoma = system: UACC-257 melanoma
UACC-62 melanoma = system: UACC-62 melanoma
UO-31 renal = system: UO-31 renal
A498 renal = system: A498 renal
HOP-62 NSCLC = system: HOP-62 NSCLC
MALME-3M melanoma = system: MALME-3M melanoma
RXF 393 renal = system: RXF 393 renal
SR leukemia = system: SR leukemia

Structure (SMILES): C=C(C)COc1cc(NC(=S)OC(C)C)ccc1Cl
- TGI (786-0 renal): 30.5 µM
- TGI (A549 NSCLC): 25.8 µM
- TGI (ACHN renal): 31.1 µM
- TGI (BT-549 breast): 24.3 µM
- TGI (CAKI-1 renal): 28.7 µM
- TGI (CCRF-CEM leukemia): 39.2 µM
- TGI (COLO 205 colon): 31.6 µM
- TGI (DU-145 prostate): 31.1 µM
- TGI (EKVX NSCLC): 24.8 µM
- TGI (HCC-2998 colon): 29.5 µM
- TGI (HCT-116 colon): 28.4 µM
- TGI (HCT-15 colon): 30.6 µM
- TGI (HL-60(TB) leukemia): 35.9 µM
- TGI (HOP-92 NSCLC): 26.7 µM
- TGI (HS 578T breast): 49.9 µM
- TGI (HT29 colon): 28.4 µM
- TGI (IGROV1 ovarian): 31 µM
- TGI (K-562 leukemia): 38.7 µM
- TGI (KM12 colon): 65.7 µM
- TGI (LOX IMVI melanoma): 30.4 µM
- TGI (M14 melanoma): 31.7 µM
- TGI (MCF7 breast): 29.3 µM
- TGI (MDA-MB-231 breast): 29.5 µM
- TGI (MDA-MB-435): 28.6 µM
- TGI (MDA-N): 31.5 µM
- TGI (MOLT-4 leukemia): 34.3 µM
- TGI (NCI-H226 lung): 32.7 µM
- TGI (NCI-H23 lung): 31.3 µM
- TGI (NCI-H460 lung): 30.8 µM
- TGI (NCI-H522 lung): 29.1 µM
- TGI (NCI/ADR-RES ovarian): 30.1 µM
- TGI (OVCAR-3 ovarian): 29.6 µM
- TGI (OVCAR-4 ovarian): 28.3 µM
- TGI (OVCAR-5 ovarian): 29.4 µM
- TGI (OVCAR-8 ovarian): 30.7 µM
- TGI (PC-3 prostate): 28.6 µM
- TGI (RPMI-8226 leukemia): 54.1 µM
- TGI (SF-268 CNS): 40.6 µM
- TGI (SF-295 CNS): 29.3 µM
- TGI (SF-539 CNS): 30 µM
- TGI (SK-MEL-2 melanoma): 27.2 µM
- TGI (SK-MEL-28 melanoma): 31.8 µM
- TGI (SK-MEL-5 melanoma): 38.4 µM
- TGI (SK-OV-3 ovarian): 38.1 µM
- TGI (SN12C renal): 30.6 µM
- TGI (SNB-19 CNS): 33.4 µM
- TGI (SNB-75 CNS): 29.8 µM
- TGI (SW-620 colon): 27.6 µM
- TGI (T-47D breast): 26.8 µM
- TGI (TK-10 renal): 29.3 µM
- TGI (U251 CNS): 30.8 µM
- TGI (UACC-257 melanoma): 31.8 µM
- TGI (UACC-62 melanoma): 32.7 µM
- TGI (UO-31 renal): 26.9 µM

Structure (SMILES): COc1ccc(/C=C/C(=O)CCN2CCN(CCC(=O)/C=C/c3ccc(OC)cc3)CC2)cc1
- TGI (786-0 renal): 10.9 µM
- TGI (A498 renal): 16.2 µM
- TGI (A549 NSCLC): 49.5 µM
- TGI (ACHN renal): 27.2 µM
- TGI (BT-549 breast): 39.9 µM
- TGI (CAKI-1 renal): 26.3 µM
- TGI (COLO 205 colon): 13.4 µM
- TGI (DU-145 prostate): 71.1 µM
- TGI (EKVX NSCLC): 28.2 µM
- TGI (HCC-2998 colon): 24.7 µM
- TGI (HCT-116 colon): 11.1 µM
- TGI (HCT-15 colon): 22.3 µM
- TGI (HL-60(TB) leukemia): > 100 µM
- TGI (HOP-62 NSCLC): 49.7 µM
- TGI (HOP-92 NSCLC): 34.5 µM
- TGI (HS 578T breast): 70 µM
- TGI (HT29 colon): 23.8 µM
- TGI (IGROV1 ovarian): 25.9 µM
- TGI (K-562 leukemia): 37.9 µM
- TGI (KM12 colon): 23 µM
- TGI (LOX IMVI melanoma): 11.1 µM
- TGI (M14 melanoma): 32.5 µM
- TGI (MALME-3M melanoma): 35.9 µM
- TGI (MCF7 breast): 13.6 µM
- TGI (MDA-MB-231 breast): 25.2 µM
- TGI (MDA-MB-435): 24.6 µM
- TGI (MDA-N): 10.5 µM
- TGI (MOLT-4 leukemia): > 100 µM
- TGI (NCI-H226 lung): 52.8 µM
- TGI (NCI-H23 lung): 30.1 µM
- TGI (NCI-H460 lung): 23.1 µM
- TGI (NCI/ADR-RES ovarian): 96 µM
- TGI (OVCAR-3 ovarian): 28.8 µM
- TGI (OVCAR-4 ovarian): 50 µM
- TGI (OVCAR-5 ovarian): 35.3 µM
- TGI (OVCAR-8 ovarian): 42.4 µM
- TGI (PC-3 prostate): 25.5 µM
- TGI (RXF 393 renal): 17.2 µM
- TGI (SF-268 CNS): 41.7 µM
- TGI (SF-295 CNS): 20.8 µM
- TGI (SF-539 CNS): 19.1 µM
- TGI (SK-MEL-2 melanoma): 42 µM
- TGI (SK-MEL-28 melanoma): 28.4 µM
- TGI (SK-MEL-5 melanoma): 32 µM
- TGI (SK-OV-3 ovarian): 24.1 µM
- TGI (SN12C renal): 26 µM
- TGI (SNB-19 CNS): > 100 µM
- TGI (SNB-75 CNS): 58.6 µM
- TGI (SW-620 colon): 19.7 µM
- TGI (TK-10 renal): 28 µM
- TGI (U251 CNS): 26.6 µM
- TGI (UACC-257 melanoma): 29.1 µM
- TGI (UACC-62 melanoma): 27.2 µM
- TGI (UO-31 renal): 27.7 µM

Structure (SMILES): COc1ccc(Nc2cc(=O)[nH]c(=O)[nH]2)cc1
- TGI (786-0 renal): > 100 µM
- TGI (A498 renal): > 100 µM
- TGI (A549 NSCLC): > 100 µM
- TGI (ACHN renal): > 100 µM
- TGI (BT-549 breast): > 100 µM
- TGI (CCRF-CEM leukemia): > 100 µM
- TGI (COLO 205 colon): > 100 µM
- TGI (DU-145 prostate): > 100 µM
- TGI (EKVX NSCLC): > 100 µM
- TGI (HCC-2998 colon): > 100 µM
- TGI (HCT-116 colon): > 100 µM
- TGI (HCT-15 colon): > 100 µM
- TGI (HL-60(TB) leukemia): > 100 µM
- TGI (HOP-62 NSCLC): > 100 µM
- TGI (HOP-92 NSCLC): > 100 µM
- TGI (HS 578T breast): > 100 µM
- TGI (HT29 colon): > 100 µM
- TGI (IGROV1 ovarian): > 100 µM
- TGI (K-562 leukemia): > 100 µM
- TGI (KM12 colon): > 100 µM
- TGI (LOX IMVI melanoma): > 100 µM
- TGI (M14 melanoma): > 100 µM
- TGI (MALME-3M melanoma): > 100 µM
- TGI (MCF7 breast): > 100 µM
- TGI (MDA-MB-231 breast): > 100 µM
- TGI (MDA-MB-435): > 100 µM
- TGI (MDA-N): > 100 µM
- TGI (MOLT-4 leukemia): > 100 µM
- TGI (NCI-H226 lung): > 100 µM
- TGI (NCI-H23 lung): > 100 µM
- TGI (NCI-H460 lung): > 100 µM
- TGI (NCI/ADR-RES ovarian): > 100 µM
- TGI (OVCAR-3 ovarian): > 100 µM
- TGI (OVCAR-4 ovarian): > 100 µM
- TGI (OVCAR-5 ovarian): > 100 µM
- TGI (OVCAR-8 ovarian): > 100 µM
- TGI (PC-3 prostate): > 100 µM
- TGI (RPMI-8226 leukemia): > 100 µM
- TGI (RXF 393 renal): > 100 µM
- TGI (SF-268 CNS): > 100 µM
- TGI (SF-295 CNS): > 100 µM
- TGI (SF-539 CNS): > 100 µM
- TGI (SK-MEL-28 melanoma): > 100 µM
- TGI (SK-MEL-5 melanoma): > 100 µM
- TGI (SN12C renal): > 100 µM
- TGI (SNB-19 CNS): > 100 µM
- TGI (SNB-75 CNS): > 100 µM
- TGI (SR leukemia): > 100 µM
- TGI (SW-620 colon): > 100 µM
- TGI (TK-10 renal): > 100 µM
- TGI (U251 CNS): > 100 µM
- TGI (UACC-257 melanoma): > 100 µM
- TGI (UO-31 renal): > 100 µM
